# Measured values published in US20250368639A1, “SOLID FORMS OF A COMPOUND FOR TREATING OR PREVENTING HYPERURICEMIA OR GOUT” (ATOM THERAPEUTICS CO., LTD, priority 2022, published 2025).
# Read-outs that look alike come from different tables or passages of the source.
# Tests used:
# [1] = Solid state stability under stress conditions (XRPD, HPLC); format: physicochemical; details: closed vial about 60° C.; closed vial about 40° C./75% RH; 1 week and 2 weeks
# Protocol: Form 1. Form 2, Form 6, Form 8, and Form 11 were each placed under following stress conditions: (1) in a closed vial at a temperature of about 60° C., and (2) in a closed vial at a temperature of about 40′° C. and a humidity of about 75% RH. The solids were analyzed with XRPD at 1 week and 2 weeks intervals.
# Additionally, all forms were analyzed with HPLC for impurity at the 1 week and 2 weeks intervals. In a typical analysis, about 5 mg of forms were each dissolved in 10 ml of diluents with the aid of sonication for 2 minutes. THF was used as the diluent for Form 1, and methanol was used as the diluent for Form 6, Form 8, and Form 11. The HPLC analysis utilized Agilent Eclipse XDB-C18 4.6*150 mm. 3.5 μm at 30° C., a mobile phase of a gradient between 0.1% H3PO4 and acetonitrile (9:1 to 2:8 to 9:1), an injection volume of 10 μl, a flow rate of 1.0 ml/min, and a detection wavelength of 214 nm.
# Form 2 was further subject to the stability test in an open vial at 40° C. and a relative humidity of 75% RH.
# [2] = Single-dose pharmacokinetic study, oral and intravenous, in SD rats; format: in vivo, SD rat; details: for AUC(0-t) / Cmax / MRT last / AUC(0-inf) / clearance / half-life / Vd / Vd/F: male, SD, rat, plasma; for AUC(0-inf): read-out: AUCINF—pred; for clearance: read-out: Cl—pred (converted); for half-life: read-out: HL_Lambda_z (T1/2) (converted); for Vd: read-out: Vz—pred; for Vd/F: read-out: Vz—F—pred
# Protocol: Form 1, Form 2, and Form 5D were each evaluated via a single-dose pharmacokinetic study following oral and intravenous administration in SD rats. […] Form 1, Form 2, and Form 5Dwere evaluated by rat pharmacokinetics study.
# Male SD rat was purchased from Shanghai Sippr B&K Laboratory Animals Co., Ltd. The weight was 180 g˜200 g.
# 20% HP-β-CD was prepared from dissolving20 g of HP-β-CD (from Sigma) in 100 mL purified water. 0.5% CMC-Na was prepared from dissolving 1 g of CMC-Na (from Aladdin) in 200 mL purified water. The solutions were stored at 2-8 degree.
# (§1) Group 1:4.95 mg (equivalent to 4.50 mg of anhydrous free base) of Form 1 was weighed out into a 20 ml bottle, and totally dissolved by 0.225 mL DMSO by sonication. After that, 4.275 mL of 20% HP-β-CD was added, mixed well by sonication. Finally, the pH value was adjusted to 7.0 by sodium hydroxide solution. The clear solution was obtained, and the concentration was 1 mg/mL.
# Group 2:10.08 mg (equivalent to 9.164 mg of anhydrous free base) of Form 1 was weighed out into a 20 ml bottle, and then 9.164 mL of 0.5% CMC-Na was added. A white suspension was formed after sonicated by ultrasonic cell disruptor, and the concentration was 1 mg/mL.
# Group 3:9.47 mg of Form 2 was weighed out into a 20 ml bottle, and then 9.470 mL of 0.5% CMC-Na was added. After sonicated, it was mixed well by homogenizer for 2 minutes. Finally, a white suspension was formed, and the concentration was 1 mg/mL.
# Group 4:9.80 mg (equivalent to 8.909 mg of free base) of Form 5Dwas weighed out into a 20 mL bottle, and then 8.909 mL of 0.5% CMC-Na was added. After sonicated, it was mixed well by homogenizer for 2 minutes. Finally, a white suspension was formed, and the concentration was 1 mg/mL.
# as §1, with “Group 5:1.94” for “Group 1:4.95”, “to 1.763” for “to 4.50”, “by 0.088” for “by 0.225”, “that, 1.675” for “that, 4.275”, “was 0.2” for “was 1”
# The dose of intravenous administration was 1 mg/kg and 5 mg/kg, respectively. The oral dose was 10 mg/kg. Animals were fasted overnight before drug administration. After the drug administration, the rats were fed at the 4 hours.
# About 150˜200 μL of blood was collected at the initial time (only intravenous), and at 0.25, 0.5, 1, 2, 4, 6, 8 and 24 h by jugular venipuncture blooding method. EDTA-K2 was selected as anticoagulant. Blood samples were centrifuged within one hour at 6000 rpm for 8 minutes (placed on wet ice before centrifugation). The supernatant was stored at −20° C. for LC-MS/MS analysis.
# The computer program Microsoft Office Excel 2007 (Microsoft, USA) was used to process data and graphics. The pharmacokinetic parameters were calculated by WinNolin 6.4 software.
# [3] = Dynamic vapor sorption/desorption (DVS); format: physicochemical
# Protocol: Moisture sorption/desorption data were collected on a SMS DVS intrinsic Vapor Sorption Analyzer under a nitrogen purge. The DVS experiment generally includes a moisture sorption step and a moisture desorption step. […] In other words, the sample is considered to have reached an equilibrium between moisture sorption and desorption under the relative humidity when dm/dt≤0.01%. The sample was maintained at the temperature of 25° C. with relative humidity varied from 0% to 95%, and back to 0% at an increment of 5% RH each step.
# [4] = iv, 1 mg/kg, male SD rats, intravenous 1 mg/kg, Average
# [5] = iv, 1 mg/kg, male SD rats, intravenous 1 mg/kg, individual rats 501/502/503 (c1/c2/c3)
# [6] = iv, 5 mg/kg, male SD rats, 5 mg/kg (intravenous), Average
# [7] = iv, 5 mg/kg, male SD rats, 5 mg/kg (intravenous), individual rats 101/102/103 (c1/c2/c3)
# [8] = po, 10 mg/kg, male SD rats, oral 10 mg/kg, Average (Table 9)
# [9] = po, 10 mg/kg, male SD rats, oral 10 mg/kg, individual rats 201/202/203 (c1/c2/c3)
structure (smiles),measurement,setting,value
"CCc1nc2ccccn2c1C(=O)c1cc(Br)c(O)c(C#N)c1 [Form 1, 3-bromo-5-[(2-ethylimidazo[1,2-a]pyridin-3-yl)carbonyl]-2-hydroxybenzonitrile]",XRPD pattern after stress storage,[1],substantially similar to those received at the initial time
same,Exposure at 5 mg/kg relative to 1 mg/kg,"[2]; SD rats, intravenous administration, 5 mg/kg versus 1 mg/kg",about 5 times
same,"Exposure and bioavailability (words, comparison)","[2]; SD rats, oral administration 10 mg/kg, 10 mg/kg",sufficiently high bioavailability
same,Cl—F—pred,"[2]; male SD rats, oral 10 mg/kg, Average (Table 9)",2.17 mL/min/kg
same,F,"[2]; male SD rats, oral 10 mg/kg, calculated by intravenous administration of 1 mg/kg, Average (Table 9)",43.54%
same,AUC(0-t),[2]; [4],17400 ng·h/mL
same,Cmax,[2]; [4],9580 ng/mL
same,MRT last,[2]; [4],3.65 h
same,AUC(0-inf),[2]; [4],17400 ng·h/mL
same,clearance,[2]; [4],1 mL/min/kg
same,half-life,[2]; [4],2.9 h
same,Vd,[2]; [4],0.24 L/kg
same,AUC(0-t),[2]; [5],18500 ng·h/mL
same,Cmax,[2]; [5],7120 ng/mL
same,MRT last,[2]; [5],3.99 h
same,AUC(0-inf),[2]; [5],18500 ng·h/mL
same,clearance,[2]; [5],0.833 mL/min/kg
same,half-life,[2]; [5],3.2 h
same,Vd,[2]; [5],0.25 L/kg
same,AUC(0-t),[2]; [6],80200 ng·h/mL
same,Cmax,[2]; [6],51400 ng/mL
same,MRT last,[2]; [6],3.44 h
same,AUC(0-inf),[2]; [6],80500 ng·h/mL
same,clearance,[2]; [6],1 mL/min/kg
same,half-life,[2]; [6],3.08 h
same,Vd,[2]; [6],0.28 L/kg
same,AUC(0-t),[2]; [7],90800 ng·h/mL
same,Cmax,[2]; [7],55700 ng/mL
same,MRT last,[2]; [7],3.65 h
same,AUC(0-inf),[2]; [7],91100 ng·h/mL
same,clearance,[2]; [7],0.833 mL/min/kg
same,half-life,[2]; [7],3.12 h
same,Vd,[2]; [7],0.25 L/kg
same,AUC(0-t),[2]; [8],75600 ng·h/mL
same,Cmax,[2]; [8],6480 ng/mL
same,MRT last,[2]; [8],6.51 h
same,AUC(0-inf),[2]; [8],76200 ng·h/mL
same,half-life,[2]; [8],3.16 h
same,Vd/F,[2]; [8],0.61 L/kg
same,AUC(0-t),[2]; [9],71500 ng·h/mL
same,Cmax,[2]; [9],6030 ng/mL
same,MRT last,[2]; [9],6.64 h
same,AUC(0-inf),[2]; [9],72100 ng·h/mL
same,half-life,[2]; [9],3.15 h
same,Vd/F,[2]; [9],0.63 L/kg
same,DVS (80% RH),"[3]; 25° C., 80% RH",5.32%
same,DVS (85% RH),"[3]; 25° C., 85% RH",5.68%
same,Moisture absorbed (DVS),[3]; relative humidity cycled from 0% RH to 5% RH,about 3.4 % by weight
